Data: US20140158116A1, “INHIBITING TRPA1 FOR THE TREATMENT OF ASTHMA” (Cubist Pharmaceuticals, Inc., priority 2012, published 2014)
“Also recorded” adds a separate entry of the source. Where two headings read alike, the source gives them in different places.

What was measured:
[1] = Oral bioavailability pharmacokinetic study; assay type: in vivo; settings: rat, plasma, PO versus IV
Protocol: The potency and pharmacokinetic (PK) properties of (a) the compound of Formula (Ia); and (b) comparator compound of Formula (III) were evaluated. Bioavailability was measured as well. A pharmacokinetic study was performed to obtain a plasma drug concentration vs time plot for the drug after both intravenous (IV) and oral (PO) administration. The absolute bioavailability is the dose-corrected area under curve (AUC) non-intravenous divided by AUC intravenous. The formula for calculating F for a drug administered by the oral route (PO) is given below.
The bioavailability was calculated using the equation shown below:
% F=AUC PO×Dose IV/AUC IV×Dose PO

[2] = tested on: incisional spontaneous pain (guarding); test: Surgical incision (Brennan) pain behavior rodent model; assay type: in vivo, rat
Protocol: The compound of Formula (Ia) is also active in rodent models of pain in vivo induced by incision of the plantar surface of the hind paw (i.e., the “Brennan Surgical Model”), as described in Example 7. […] Thirty (30) mg/kg of the compound of Formula (Ia) delivered intraperitoneally (2 doses of 15 mg/kg before and immediately after the surgery) reduces spontaneous pain for up to 2 hours after surgery (FIG. 4). The compound of Formula (Ia), the comparator compound of Formula (III) and ketoprofen were tested by the incisional pain test method reported in Brennan et al., Pain, 1996 March; 64(3):493-501 incorporated herein by reference in its entirety. Briefly, in rats under anesthesia, a 1 cm incision through skin and underlying muscle was made in the bottom of one hind paw. The incision was sutured closed and the animals allowed to regain consciousness in their home cage before being placed on a special mesh rack. The blinded observer subjectively assessed and recorded each animal's pain score every 5 minutes for 1 hour. Pain scores were assigned as follows: Score of 0=Injured paw was held flat on the rack and was bearing weight (=uninjured paw); 1=Injured paw was slightly lifted from the rack but was bearing some weight; 2=Injured paw was flat but was bearing no weight, or heel was lifted high off the rack with only toes touching. At the end of each hour, pain scores were added up and the final score recorded ([…]). In a typical study the efficacy of the drug treatment was determined by comparing the cumulative guarding scores at 1-2 and 3-4 hours following surgical injury to the cumulative guarding scores of animals that received the vehicle.

rTRPA1 = rTRPA1 (Rattus norvegicus, UniProt Q6RI86); test: Whole-cell patch clamp block of inward current through rTRPA1; assay type: cell-based
Protocol: Data for TRPA1 inhibition and the selectivity of TRPA1 inhibition was obtained by this method for the compound of Formula (Ia) and included in Table 1 and Table 2. All currents were recorded in whole-cell configuration using EPC-9 and EPC-10 amplifiers and Patchmaster software (HEKA). […] The standard pipette solution consisted of 140 mM CsAsp, 10 mM EGTA, 10 mM HEPES, 2.27 mM MgCl2, 1.91 mM CaCl2, 4 mM MgATP, and 0.1-0.3 mM Na2GTP, with pH adjusted to 7.2 with CsOH. In addition, a solution containing 145 mM CsCl, 10 mM HEPES, 10 mM EGTA and 1 mM MgCl2 (pH 7.2 adjusted with CsOH) can be used. The standard bath solution contained 150 mM NaCl, 10 mM HEPES, 10 mM glucose, 4.5 mM KCl, 1 mM EGTA, 3 mM MgCl2, with pH adjusted to 7.4 with NaOH. In some instances, 2 mM CaCl2 was added in place of EGTA and the concentration of MgCl2 was reduced to 1 mM.
Data were collected either by continuous recordings at −60 mV or by applying voltage ramps from a holding potential of 0 mV every 4 s. Continuous recordings were collected at 400 Hz and digitally filtered off-line at 10 Hz for presentation. Voltage ramps were applied from −100 mV to 100 mV over the course of 400 ms, and data were collected at 10 kHz and filtered at 2.9 kHz. Inward and outward currents were analyzed from the ramps at −80 and 80 mV, respectively. Liquid junction potential correction was not used.
Solutions were switched using a gravity-fed continuous focal perfusion system. To achieve rapid temperature changes, two temperature control and perfusion systems were employed simultaneously. For temperatures ≧22° C., a Warner Instruments bipolar temperature controller (TC-344B) and inline heater (SHM-8) were used. […] Temperatures were confirmed using a thermistor (Warner Instruments, TA-29), with temperatures at the recorded cell estimated to be within +/−2° C. of those reported.
IC50 of compounds was estimated by testing each compound at 5 micromolar and 500 nanomolar. […] IC50 for compounds between 500 nanomolar and 5 micromolar was similarly estimated. […]

[3] = 7-day repeat dose i.p. screening toxicity study in rats; assay type: in vivo, rat; settings: female rats, 50 mg/kg/day i.p. for 7 consecutive days
Protocol: The compound of Formula (Ia) was evaluated in a 7-day repeat dose screening toxicity study in female rats. In order to maximize systemic exposure, rats were administered compound of Formula (Ia) i.p. at 50 mg/kg/day for 7 consecutive days, to obtain the results shown in FIG. 6. Clinical chemistry parameters were evaluated on Days 3 and 8. Histopathology was performed on select organs including the liver, kidney, spleen, and lung.

Sequence of rTRPA1 (Q6RI86 whole entry): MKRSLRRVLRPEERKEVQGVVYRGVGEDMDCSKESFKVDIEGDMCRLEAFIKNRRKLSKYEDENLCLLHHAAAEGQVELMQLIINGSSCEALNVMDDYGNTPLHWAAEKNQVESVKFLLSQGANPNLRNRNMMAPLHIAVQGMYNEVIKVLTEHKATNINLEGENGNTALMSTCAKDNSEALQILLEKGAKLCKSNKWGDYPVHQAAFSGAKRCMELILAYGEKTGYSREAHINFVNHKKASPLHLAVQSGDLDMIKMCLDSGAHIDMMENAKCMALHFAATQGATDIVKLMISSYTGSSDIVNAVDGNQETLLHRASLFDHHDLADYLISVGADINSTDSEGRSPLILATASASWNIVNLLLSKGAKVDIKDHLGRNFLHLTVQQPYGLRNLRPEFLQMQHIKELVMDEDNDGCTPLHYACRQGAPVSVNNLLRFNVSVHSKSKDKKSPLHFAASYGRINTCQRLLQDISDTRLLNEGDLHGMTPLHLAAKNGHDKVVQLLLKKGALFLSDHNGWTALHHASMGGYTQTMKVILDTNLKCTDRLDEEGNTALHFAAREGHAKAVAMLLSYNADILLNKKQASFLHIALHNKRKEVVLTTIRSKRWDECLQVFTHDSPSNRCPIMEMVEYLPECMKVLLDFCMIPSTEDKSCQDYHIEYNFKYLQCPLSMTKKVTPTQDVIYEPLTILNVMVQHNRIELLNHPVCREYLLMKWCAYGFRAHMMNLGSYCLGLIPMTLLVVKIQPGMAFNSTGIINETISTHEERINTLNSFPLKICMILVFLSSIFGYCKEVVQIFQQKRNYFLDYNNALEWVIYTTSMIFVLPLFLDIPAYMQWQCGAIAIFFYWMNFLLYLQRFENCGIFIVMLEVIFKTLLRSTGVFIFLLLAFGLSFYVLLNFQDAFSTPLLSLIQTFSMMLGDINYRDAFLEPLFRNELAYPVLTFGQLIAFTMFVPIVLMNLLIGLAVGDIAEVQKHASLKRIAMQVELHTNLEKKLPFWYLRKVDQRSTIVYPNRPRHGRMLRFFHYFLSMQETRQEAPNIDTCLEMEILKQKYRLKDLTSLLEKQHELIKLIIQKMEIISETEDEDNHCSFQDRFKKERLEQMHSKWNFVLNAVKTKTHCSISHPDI

**Q.** What does the source list for `C[C@H]1CCCN1c1ncc(-c2cccc(NC(=O)Cn3cnc4c3c(=O)n(C)c(=O)n4C)n2)cn1` [Formula (Ia)]?
**A.** bioavailability ([1]; oral, fed rats, read-out: Bioavailability (Rat) Fed): > 50%; bioavailability ([1]; po, fasted rats, read-out: Bioavailability (Rat) Fasted): 25 to 50%; bioavailability ([1]; po, fed rats, read-out: Bioavailability (Rat) Fed): > 50%; time after surgery for which spontaneous pain is reduced ([2]; 30 mg/kg intraperitoneally (2 doses of 15 mg/kg before and immediately after the surgery)): up to 2 hours; reduction of spontaneous pain compared with ketoprofen ([2]; 60 mg/kg i.p. versus ketoprofen 2 doses of 2 mg/kg intraperitoneally): equivalent to ketoprofen; also recorded: better than ketoprofen; time after surgery for which spontaneous pain is reduced ([2]; 60 mg/kg intraperitoneally (2 doses of 30 mg/kg before and immediately after the surgery)): up to 4 hours; IC50 (rTRPA1; class symbol, read-out: Potency (IC50) Rat): ≥ 100 nM; IC50 (rTRPA1; rTRPA1, Rat, current activation 10 micromolar AITC, read-out: IC50 Inward current): 101 ± 8 nM; clinical signs, body weight, clinical chemistry parameters [3]: no adverse clinical signs, changes in body weight, or changes in clinical chemistry parameters were noted; histopathology of liver, kidney, spleen, lung ([3]; 50 mg/kg/day): No histopathological findings in the liver, kidney, spleen, or lung were observed; also recorded: no adverse effects related to the compound of Formula (Ia) were identified
